According to patent publication US20160046618A1, “Cyclopropyl Fused Thiazin-2-Amine Compounds as Beta-Secretase Inhibitors and Methods of Use” (AMGEN INC., priority 2014, published 2016):
Like-named read-outs stand apart in the source and are kept apart here.

Key:
[1] = system: Aβ40 in conditioned medium of cells stably expressing Amyloid Precursor Protein (APP); test: In vitro BACE-1 cell-based assay (Aβ40 sandwich ELISA); conditions: read-out: IC50 IP (μM) BACE1 cell
Summary of the method: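 Aβ40 in supernatants measured by time-resolved fluorescence sandwich ELISA, with pAb40 as capture and biotin-6E10 as detector antibody, each incubated at 4 °C.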

Aβ 40 in rat CSF = test: In vivo inhibition of beta-secretase: Aβ40 reduction in rat CSF; conditions: 10 mpk, after 4 h
Summary of the method: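 Male Sprague Dawley rats (200 g) dosed orally in 2% HPMC, 1% Tween80, pH 2.2, at 3, 10 or 30 mg/kg; CSF and brain taken 4 h later. Brain homogenate centrifuged at 355,000 g; Aβ40 measured by ECL sandwich ELISA (4G8 capture, Abeta40 C-terminal Fab detection), as % reduction versus vehicle controls.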

human recombinant BACE1 = human recombinant BACE1 (Homo sapiens (Human), UniProt P56817); test: In vitro enzymatic BACE1 FRET assay; type: biochemical; conditions: read-out: IC50 IP (μM) BACE1 enzyme
human recombinant BACE1, sequence (P56817 46-501): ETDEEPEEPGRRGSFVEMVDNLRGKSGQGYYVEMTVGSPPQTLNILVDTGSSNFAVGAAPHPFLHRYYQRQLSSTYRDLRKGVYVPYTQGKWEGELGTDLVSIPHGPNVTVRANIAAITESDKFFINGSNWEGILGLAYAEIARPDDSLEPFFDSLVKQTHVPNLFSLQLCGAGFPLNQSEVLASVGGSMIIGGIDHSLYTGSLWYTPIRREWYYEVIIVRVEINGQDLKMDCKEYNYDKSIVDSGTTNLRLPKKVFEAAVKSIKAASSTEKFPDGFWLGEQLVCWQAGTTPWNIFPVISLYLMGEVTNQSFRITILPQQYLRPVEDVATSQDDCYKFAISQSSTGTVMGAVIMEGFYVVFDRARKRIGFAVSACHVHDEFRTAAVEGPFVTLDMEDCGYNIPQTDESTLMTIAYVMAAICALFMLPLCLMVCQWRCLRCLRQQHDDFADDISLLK
Summary of the method: (§1)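 Reactions were initiated by adding 50 nM of a peptide carrying fluorophore and quencher on opposite sides of the cleavage site and ran for one hour. Tris buffer then brought the pH to neutrality, ending the reaction, and fluorescence was measured (488 nm excitation, 590 nm emission).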

Aβ 40 in rat brain = test: In vivo inhibition of beta-secretase: Aβ40 reduction in rat brain; conditions: 10 mpk, after 4 h
Description: In Vivo Inhibition of Beta-Secretase
Several animal models, including mouse, rat, dog, and monkey, may be used to screen for inhibition of beta-secretase activity in vivo following administration of a test compound sample. Animals used in this invention can be wild type, transgenic, or gene knockout animals. […] One to twenty-four hours following the administration of compound, animals are sacrificed, and brains as well as cerebrospinal fluid (CSF) and plasma are removed for analysis of A-beta levels and drug or test compound concentrations (Dovey et al., 2001, Journal of Neurochemistry, 76,173-181) Beginning at time 0, animals are administered by oral gavage, or other means of delivery such as intravenous injection, an inhibitory test compound of up to 100 mg/kg in a standard, conventional formulation, such as 2% hydroxypropyl methylcellulose, 1% Tween80. A separate group of animals receive 2% hydroxypropyl methylcellulose, 1% Tween80 alone, containing no test compound, and serve as a vehicle-control group. At the end of the test period, animals are sacrificed and brain tissues, plasma or cerebrospinal fluid are collected. […] Homogenates are centrifuged at 355,000 g, 4° C. for 30 minutes. CSF or brain supernatants are then analyzed for the presence of A-beta peptide by specific sandwich ELISA assays based on ECL (Electrochemiluminescence) technology. For example, rat Abeta40 is measured using biotinylated-4G8 (Signet) as a capture antibody and Fab40 (an in-house antibody specific to the C-terminal of Abeta40) as a detection antibody.
Actual vehicles used: Oral: 2% HPMC, 1% Tween80, pH 2.2

human recombinant BACE2 = human recombinant BACE2 (Homo sapiens (Human), UniProt Q9Y5Z0); test: In vitro enzymatic BACE2 FRET assay; type: biochemical; conditions: read-out: IC50 IP (μM) BACE2 enzyme
human recombinant BACE2, sequence (Q9Y5Z0 63-518): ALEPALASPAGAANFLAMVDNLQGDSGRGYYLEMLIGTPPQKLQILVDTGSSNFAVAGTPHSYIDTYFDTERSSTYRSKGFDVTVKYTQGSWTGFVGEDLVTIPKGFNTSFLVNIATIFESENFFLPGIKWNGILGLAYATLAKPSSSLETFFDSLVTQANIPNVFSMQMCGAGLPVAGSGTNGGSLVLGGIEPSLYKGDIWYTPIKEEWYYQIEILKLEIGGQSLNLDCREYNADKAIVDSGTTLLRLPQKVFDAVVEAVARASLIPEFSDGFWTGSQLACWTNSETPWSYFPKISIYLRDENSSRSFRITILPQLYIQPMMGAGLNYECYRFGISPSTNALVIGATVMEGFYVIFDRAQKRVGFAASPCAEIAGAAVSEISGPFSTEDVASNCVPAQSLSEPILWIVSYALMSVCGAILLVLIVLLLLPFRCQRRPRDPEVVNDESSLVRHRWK
Summary of the method: as §1

Recombinant Cat D = Recombinant Cat D (Homo sapiens (Human), UniProt P07339); test: In vitro enzymatic Cathepsin D (Cat D) FRET assay; type: biochemical; conditions: read-out: IC50 IP (μM) CatD
Recombinant Cat D, sequence (P07339 65-412): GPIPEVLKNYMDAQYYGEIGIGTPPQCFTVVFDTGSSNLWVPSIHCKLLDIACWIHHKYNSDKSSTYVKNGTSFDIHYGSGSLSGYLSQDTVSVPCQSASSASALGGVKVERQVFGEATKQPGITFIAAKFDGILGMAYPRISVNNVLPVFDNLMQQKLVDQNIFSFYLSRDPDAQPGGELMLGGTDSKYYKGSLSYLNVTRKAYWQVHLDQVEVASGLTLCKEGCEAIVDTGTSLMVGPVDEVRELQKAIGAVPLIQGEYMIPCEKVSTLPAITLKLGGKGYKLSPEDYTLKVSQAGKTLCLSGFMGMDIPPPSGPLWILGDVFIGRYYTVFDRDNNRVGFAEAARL
Summary of the method: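 Human Cat D expressed in CHO cells was incubated for one hour in 0.05 M citrate pH 3.5, 5 mM CHAPS, 10% DMSO final, with 20 nM quenched FRET peptide substrate. Reactions were stopped with Tris buffer raising pH to neutrality. Cleavage was read as fluorescence at excitation 500 nm, emission 580 nm.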

Structure (SMILES)	IC50 ([1]; BACE1 cell-based assay)	IC50 (human recombinant BACE1; BACE1 FRET enzyme assay)	IC50 (human recombinant BACE2; BACE2 FRET enzyme assay)	IC50 (Recombinant Cat D; Cathepsin D FRET enzyme assay)	IC50 [1]	IC50 (human recombinant BACE1)	IC50 (human recombinant BACE2)	IC50 (Recombinant Cat D)	% Aβ 40 reduction in rat CSF at 10 mpk (Aβ 40 in rat CSF)	% Aβ 40 reduction in rat brain at 10 mpk (Aβ 40 in rat brain)
C[C@]1(c2cc(Nc3nccc4cc(C#N)cnc34)cc(F)c2F)N=C(N)S[C@H]2C[C@H]21 [Example 21, 8-((3-((1S,5S,6S)-3-amino-5-methyl-2-thia-4-azabicyclo[4.1.0]hept-3-en-5-yl)-4,5-difluorophenyl)amino)-1,7-naphthyridine-3-carbonitrile]	0.0164 µM	0.0145 µM	0.00534 µM	> 133 µM	–	–	–	–	61%	40%
C[C@]1(c2cc(NC(=O)c3cnc(OCC(F)(F)C(F)F)cn3)ccc2F)N=C(N)S[C@]2(CO)[C@H]1C2(F)F [Example 708, N-(3-((1S,5S,6R)-3-amino-7,7-difluoro-1-(hydroxymethyl)-5-methyl-2-thia-4-azabicyclo[4.1.0]hept-3-en-5-yl)-4-fluorophenyl)-5-(2,2,3,3-tetrafluoropropoxy)-2-pyrazinecarboxamide]	–	–	–	–	0.0215 µM	0.000969 µM	0.107 µM	438 µM	13%	−4%
Cc1cc(OCC(F)(F)F)cnc1C(=O)Nc1ccc(F)c([C@@]2(C)N=C(N)S[C@@]3(CF)C[C@H]32)c1 [Example 689, N-(3-((1S,5S,6S)-3-amino-1-(fluoromethyl)-5-methyl-2-thia-4-azabicyclo[4.1.0]hept-3-en-5-yl)-4-fluorophenyl)-3-methyl-5-(2,2,2-trifluoroethoxy)-2-pyridinecarboxamide]	–	–	–	–	0.0464 µM	0.0105 µM	0.819 µM	> 400 µM	38%	10%

Second part, led by results:

IC50 ([1]; BACE1 cell-based assay)	IC50 (human recombinant BACE1; BACE1 FRET enzyme assay)	IC50 (human recombinant BACE2; BACE2 FRET enzyme assay)	IC50 (Recombinant Cat D; Cathepsin D FRET enzyme assay)	IC50 [1]	IC50 (human recombinant BACE1)	IC50 (human recombinant BACE2)	IC50 (Recombinant Cat D)	Structure (SMILES)	% Aβ 40 reduction in rat CSF at 10 mpk (Aβ 40 in rat CSF)	% Aβ 40 reduction in rat brain at 10 mpk (Aβ 40 in rat brain)
0.00383 µM	0.00203 µM	0.00169 µM	> 400 µM	–	–	–	–	COC[C@]12C[C@H]1[C@@](C)(c1cc(Nc3nccc4cc(C#N)cnc34)cc(F)c1F)N=C(N)S2 [Example 33, 8-((3-((1S,5S,6S)-3-amino-1-(methoxymethyl)-5-methyl-2-thia-4-azabicyclo[4.1.0]hept-3-en-5-yl)-4,5-difluorophenyl)amino)-1,7-naphthyridine-3-carbonitrile]	65%	53%
–	–	–	–	0.00962 µM	0.00798 µM	0.359 µM	779 µM	COC[C@]12C[C@H]1[C@@](C)(c1cc(Nc3nccc4cc(OCc5ncco5)cnc34)cc(F)c1F)N=C(N)S2 [Example 727, N-(3-((1S,5S,6S)-3-amino-1-(methoxymethyl)-5-methyl-2-thia-4-azabicyclo[4.1.0]hept-3-en-5-yl)-4,5-difluorophenyl)-3-(1,3-oxazol-2-ylmethoxy)-1,7-naphthyridin-8-amine]	38%	18%
–	–	–	–	0.00325 µM	0.00173 µM	0.055 µM	475 µM	COC[C@]12C[C@H]1[C@@](C)(c1cc(Nc3nccc4nc(OCc5ncco5)cnc34)cc(F)c1F)N=C(N)S2 [Example 631, N-(3-((1S,5S,6S)-3-amino-1-(methoxymethyl)-5-methyl-2-thia-4-azabicyclo[4.1.0]hept-3-en-5-yl)-4,5-difluorophenyl)-2-(1,3-oxazol-2-ylmethoxy)pyrido[3,4-b]pyrazin-5-amine]	52%	47%
–	–	–	–	0.00772 µM	0.000489 µM	0.0242 µM	122 µM	C#CCOc1cnc2c(Nc3cc(F)c(F)c([C@@]4(C)N=C(N)S[C@@]5(CF)C[C@H]54)c3)nccc2n1 [Example 806, N-(3-((1S,5S,6S)-3-amino-1-(fluoromethyl)-5-methyl-2-thia-4-azabicyclo[4.1.0]hept-3-en-5-yl)-4,5-difluorophenyl)-2-(2-propyn-1-yloxy)pyrido[3,4-b]pyrazin-5-amine]	70%	65%
